Test results: publication PMC11203424, “Comparative Analysis of Orthosteric and Allosteric GLP-1R Agonists’ Effects on Insulin Secretion from Healthy, Diabetic, and Recovered INS-1E Pancreatic Beta Cells” (International Journal of Molecular Sciences, 2024)

Legend:
[1] = system: dipeptidyl peptidase (DPP)-IV; conditions: cited from earlier work
Source text: Type 2 diabetes (T2D), which is a multifactorial metabolic disease that is largely characterized by impaired insulin secretion and action, has become a global pandemic in recent decades. Despite the availability of various treatments, T2D post-diagnosis complications such as cardiovascular disease (CVD) remain prevalent, and finding long-term stable treatment regimes for patients can be challenging. Therefore, novel therapeutic strategies, which alleviate the pathology associated with T2D more effectively than current treatments, are highly desirable. Th ...

GLP-1R [2] = system: GLP-1R; design: method as in PMID 27630114, doi:10.4172/2161-1459.1000138, PMID 27138453, PMID 27100083, PMID 25449603; conditions: cited from earlier work
Source text: The activation of the Gαs subunit of heterotrimeric G-protein raises intracellular cAMP levels via adenylyl cyclase (AC) activation, whereas the activation of the Gαq subunit increases intracellular calcium (iCa^2+) levels and extracellular signal-regulated kinase (ERK) phosphorylation, which promotes GLP-1R internalization. The internalization of GLP-1R is associate ...

GLP-1R [3] = molecular target: T1, GLP-1R (Rattus norvegicus, UniProt P32301); test: Glucose-stimulated insulin secretion (GSIS), insulin ELISA, INS-1E cells; type: cell-based; conditions: 10 μM, 15 mM glucose, n = 3
T1 construct: Rat INS-1E cells were cultured in RPMI-1640 containing 11 mM glucose; endogenous in cells; host or cells: INS-1E rat pancreatic beta cell line (healthy, diabetic and recovered states)
T1 sequence (P32301 22-463): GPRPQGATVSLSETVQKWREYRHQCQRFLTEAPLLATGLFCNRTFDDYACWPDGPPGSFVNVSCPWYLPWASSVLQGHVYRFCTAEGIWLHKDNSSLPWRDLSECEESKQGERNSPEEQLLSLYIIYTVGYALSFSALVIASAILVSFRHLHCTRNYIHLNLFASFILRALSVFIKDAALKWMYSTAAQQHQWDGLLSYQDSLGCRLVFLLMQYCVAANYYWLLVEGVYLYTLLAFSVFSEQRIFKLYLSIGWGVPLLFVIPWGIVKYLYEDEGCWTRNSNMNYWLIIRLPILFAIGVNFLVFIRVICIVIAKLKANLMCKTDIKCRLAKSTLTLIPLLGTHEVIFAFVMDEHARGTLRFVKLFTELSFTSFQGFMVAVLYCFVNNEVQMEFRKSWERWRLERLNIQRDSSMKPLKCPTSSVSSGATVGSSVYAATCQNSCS
Method: The cells were maintained in sterile 10 cm^2 tissue culture Petri dishes (Greiner Bio-one, Stonehouse, UK) by changing the FSM every 3–4 days and sub-culturing when they reached 100% confluency. Diabetic and recovered INS-1E cells were generated using a previously described method with some changes [41]. To produce ‘diabetic’ INS-1E cells, when healthy INS-1E cells reached >80% confluency, they were maintained in FSM containing high glucose (40 mM) for 4 weeks by changing the medium with high glucose every 3–4 days. To produce ‘recovered’ cells, the healthy cells were cultured initially in FSM containing 40 mM glucose (diabetic condition) for 4 weeks and then in FSM containing 11 mM glucose for 4 weeks. […] Unless otherwise specified, all incubations of the cells in the following assays were carried out in a humid incubator at 37 °C and 5% CO2, and all of the ELISAs were carried out at room temperature (RT).
For the ELISA, the wells of 96-well plate inserts were coated with 50 μL of 3 μg/mL captured antibody (Novus Biologicals, Abingdon, UK) diluted in PBS for 2 h at 37 °C and then washed four times with PBST. The antibody-coated wells were then blocked for 1 h with 150 μL of blocking buffer (5% fish gelatin made in PBST). Samples of 50 μL of samples were added to the capture antibody-coated wells in duplicate and incubated overnight at 4 °C. The wells were then washed five times with PBST and incubated with 50 μL of HRP-conjugated detection antibody (Abcam; diluted 1/10,000 in dilution buffer) for 2 h. The wells were washed again five times with PBST and incubated with 50 μL of Ultra TMB substrate (Thermo Fisher Scientific, Loughborough, UK) for 5 min. The reaction was stopped by adding an equal volume of 2M sulfuric acid, then its optical density was read at 450 nm (OD450) using a plate reader. Using known insulin standards (Abcam, Cambridge, UK), the insulin concentrations of samples were determined.

INS-1E cells [4] = test: GSIS with cAMP-elevating chemicals, insulin ELISA; type: cell-based, Rat; conditions: IBMX (10 μM), forskolin (0.5 mM), 15 mM glucose, n = 3; for augmentation of GSIS versus allosteric agonists: up to 12 h, p > 0.05
Method: Figure 9 Assessing the time-dependent effects of GLP-1R agonists and cAMP-elevating chemicals (IBMX and forskolin) on GSIS and GSICP in healthy, diabetic, and recovered INS-1E cells. […] Samples were analyzed using insulin (a) and cAMP (b) ELISAs. Data expressed as mean ± SEM, n = 3. […] No symbol on the bars indicates non-significance (p > 0.05) in comparison to the no agonist control at that time point. […] The cells were maintained in sterile 10 cm^2 tissue culture Petri dishes (Greiner Bio-one, Stonehouse, UK) by changing the FSM every 3–4 days and sub-culturing when they reached 100% confluency. Diabetic and recovered INS-1E cells were generated using a previously described method with some changes. […] To produce ‘recovered’ cells, the healthy cells were cultured initially in FSM containing 40 mM glucose (diabetic condition) for 4 weeks and then in FSM containing 11 mM glucose for 4 weeks. For all the following assays, INS-1E cells (100,000 cells/well) were plated in a 96-well plate in FSM and incubated for 24 h in a humid incubator at 37 °C and 5% CO2 for the cells to attach and reach >80% confluency. Unless otherwise specified, all incubations of the cells in the following assays were carried out in a humid incubator at 37 °C and 5% CO2, and all of the ELISAs were carried out at room temperature (RT). The insulin secreted by INS-1E cells during the treatments was measured using an insulin ELISA. INS-1E cells (100,000 cells/well) were plated in a 96-well plate in FSM. […] The cells were then incubated in the KRH buffer containing the specified concentration of glucose without or with the specified concentration of GLP-1R agonist(s) for the desired time. After cessation of the cell treatments, the media were clarified via centrifugation at 22,000× g for 5 min and then diluted 1 in 25 in dilution buffer (0.5% fish gelatin made in PBST [PBS with 0.05% tween-20]) and used for the insulin ELISA. The sample preparation for measuring the intracellular insulin contents of the INS-1E cells via the insulin ELISA was as follows. After cessation of the treatments, the cells were lysed in 150 μL of 0.1 M HCl. The cell lysates were centrifuged at 22,000× g for 5 min, then the supernatant was diluted 1 in 1000 in dilution buffer to use as the samples for the insulin ELISA. For the ELISA, the wells of 96-well plate inserts were coated with 50 μL of 3 μg/mL captured antibody (Novus Biologicals, Abingdon, UK) diluted in PBS for 2 h at 37 °C and then washed four times with PBST. […] The reaction was stopped by adding an equal volume of 2M sulfuric acid, then its optical density was read at 450 nm (OD450) using a plate reader. Using known insulin standards (Abcam, Cambridge, UK), the insulin concentrations of samples were determined.

INS-1E cells [5] = test: Intracellular cAMP (GSICP) with cAMP-elevating chemicals, cAMP ELISA; type: cell-based, Rat; conditions: IBMX (10 μM), forskolin (0.5 mM), 15 mM glucose, n = 3; for intracellular cAMP (GSICP) versus allosteric agonists: up to 12 h, p > 0.05
Method: Figure 9 Assessing the time-dependent effects of GLP-1R agonists and cAMP-elevating chemicals (IBMX and forskolin) on GSIS and GSICP in healthy, diabetic, and recovered INS-1E cells. […] Samples were analyzed using insulin (a) and cAMP (b) ELISAs. Data expressed as mean ± SEM, n = 3. […] No symbol on the bars indicates non-significance (p > 0.05) in comparison to the no agonist control at that time point. […] The cells were maintained in sterile 10 cm^2 tissue culture Petri dishes (Greiner Bio-one, Stonehouse, UK) by changing the FSM every 3–4 days and sub-culturing when they reached 100% confluency. Diabetic and recovered INS-1E cells were generated using a previously described method with some changes. […] To produce ‘recovered’ cells, the healthy cells were cultured initially in FSM containing 40 mM glucose (diabetic condition) for 4 weeks and then in FSM containing 11 mM glucose for 4 weeks. For all the following assays, INS-1E cells (100,000 cells/well) were plated in a 96-well plate in FSM and incubated for 24 h in a humid incubator at 37 °C and 5% CO2 for the cells to attach and reach >80% confluency. Unless otherwise specified, all incubations of the cells in the following assays were carried out in a humid incubator at 37 °C and 5% CO2, and all of the ELISAs were carried out at room temperature (RT). The intracellular cAMP contents of the INS-1E cells during the treatments was measured using a cAMP ELISA. INS-1E cells (100,000 cells/well) were plated in a 96-well plate in FSM. After 24 h, the cells were pre-incubated with KRH buffer containing 0.5% fish gelatin for 1 h, washed twice with KRH and then incubated for 1 h with KRH to reduce basal cAMP levels. The cells were incubated in the KRH buffer containing various concentrations of glucose without or with different concentrations of GLP-1R agonists for the desired time. The cells were then lysed in 150 μL of 0.1M HCl by incubating at RT for 20 min, and then the cell lysates were centrifuged at 16,000× g for 10 min. A total of 12 μL of the supernatant was neutralized with 6 μL of 0.2M NaOH, diluted to 120 μL with TBS containing 0.05% Tween-20 (TBST), and used in the cAMP ELISA. For the ELISA, an anti-rabbit antibody (Genscript, Oxford, UK) diluted to 10 μg/mL in 100 mM NaHCO3 buffer (pH 9.6) was used to coat the wells (50 μL per well) of a 96-well plate overnight at 4 °C. The coated wells were washed twice with TBST and blocked with blocking buffer (TBST containing 0.5% fatty acid-free BSA) for 1 h. Samples of 50 μL were then added individually in duplicate to the antibody-coated wells. […] The reaction was stopped after 5 min with 50 μL of 2M sulfuric acid, then its optical density was read at 450 nm (OD450) using a plate reader. Using known cAMP standards, the cAMP contents of the samples were determined.

GLP-1R [6] = molecular target: T1, GLP-1R; test: Glucose-stimulated intracellular cAMP production (GSICP), cAMP ELISA, INS-1E cells; type: cell-based; conditions: diabetic INS-1E; 1 and 2 h, in some instances; 10 μM; n = 3
Method: The cells were maintained in sterile 10 cm^2 tissue culture Petri dishes (Greiner Bio-one, Stonehouse, UK) by changing the FSM every 3–4 days and sub-culturing when they reached 100% confluency. Diabetic and recovered INS-1E cells were generated using a previously described method with some changes [41]. To produce ‘diabetic’ INS-1E cells, when healthy INS-1E cells reached >80% confluency, they were maintained in FSM containing high glucose (40 mM) for 4 weeks by changing the medium with high glucose every 3–4 days. To produce ‘recovered’ cells, the healthy cells were cultured initially in FSM containing 40 mM glucose (diabetic condition) for 4 weeks and then in FSM containing 11 mM glucose for 4 weeks. […]
The intracellular cAMP contents of the INS-1E cells during the treatments was measured using a cAMP ELISA. […]
For the ELISA, an anti-rabbit antibody (Genscript, Oxford, UK) diluted to 10 μg/mL in 100 mM NaHCO3 buffer (pH 9.6) was used to coat the wells (50 μL per well) of a 96-well plate overnight at 4 °C. […] The reaction was stopped after 5 min with 50 μL of 2M sulfuric acid, then its optical density was read at 450 nm (OD450) using a plate reader. Using known cAMP standards, the cAMP contents of the samples were determined.

human islets = system: human islets; design: method as in PMID 20823098; conditions: human islets isolated from a donor with T2D; cited from earlier work

Row | GSIS at 48 h, 72 h and 96 h (GLP-1R [3]; diabetic INS-1E) | GSIS at 48 h, 72 h and 96 h (GLP-1R [3]; healthy and recovered INS-1E) | Molecule | time after which augmentation of GSIS was lost (INS-1E cells [4]) | augmentation of GSIS versus allosteric agonists (INS-1E cells [4]) | time after which augmentation of GSICP was lost (INS-1E cells [5]) | intracellular cAMP (GSICP) versus allosteric agonists (INS-1E cells [5]) | further results
1 |  |  | GLP-1: hormone secreted into the circulation by intestinal L-cells in response to food intake |  |  |  |  | half-life [1]: short half-life; G-protein pathway activation via GLP-1R (GLP-1R [2]): activation of both the Gαs and Gαq pathways
2 | significantly boosted GSIS | slightly increased GSIS | CC(C)(C)Nc1nc2cc(Cl)c(Cl)cc2nc1S(C)(=O)=O [Compound 2, 6,7-dichloro-2-methylsulfonyl-3-N-tert-butylaminoquinoxaline] |  |  |  |  | 
3 |  |  | C=C[C@@]1(C)CC(=O)[C@]2(O)[C@@]3(C)[C@@H](O)CCC(C)(C)[C@@H]3[C@H](O)[C@H](OC(C)=O)[C@@]2(C)O1 [forskolin] | 12 h | augmented GSIS to similar levels | 12 h | raised intracellular cAMP levels | 
4 |  |  | CCCCCCCCCCCCCCCC(=O)N[C@@H](CCC(=O)NCCCC[C@H](NC(=O)[C@H](C)NC(=O)[C@H](C)NC(=O)[C@H](CCC(N)=O)NC(=O)CNC(=O)[C@H](CCC(=O)O)NC(=O)[C@H](CC(C)C)NC(=O)[C@H](Cc1ccc(O)cc1)NC(=O)[C@H](CO)NC(=O)[C@H](CO)NC(=O)[C@@H](NC(=O)[C@H](CC(=O)O)NC(=O)[C@H](CO)NC(=O)[C@@H](NC(=O)[C@H](Cc1ccccc1)NC(=O)[C@@H](NC(=O)CNC(=O)[C@H](CCC(=O)O)NC(=O)[C@H](C)NC(=O)[C@@H](N)Cc1cnc[nH]1)[C@@H](C)O)[C@@H](C)O)C(C)C)C(=O)N[C@@H](CCC(=O)O)C(=O)N[C@@H](Cc1ccccc1)C(=O)N[C@H](C(=O)N[C@@H](C)C(=O)N[C@@H](Cc1c[nH]c2ccccc12)C(=O)N[C@@H](CC(C)C)C(=O)N[C@H](C(=O)N[C@@H](CCCNC(=N)N)C(=O)NCC(=O)N[C@@H](CCCNC(=N)N)C(=O)NCC(=O)O)C(C)C)[C@@H](C)CC)C(=O)O [Liraglutide] |  |  |  |  | resistance to DPP-IV [1]: resistant to breakdown by DPP-IV
5 |  |  | CC(C)Cn1c(=O)n(C)c(=O)c2[nH]cnc21 [IBMX, Isobutylmethylxanthine] | 12 h | augmented GSIS to similar levels | 12 h | raised intracellular cAMP levels | 
6 | significantly boosted GSIS | slightly increased GSIS | CC[S+]([O-])c1nc(-c2cccc(OCc3ccccc3)c2)cc(C(F)(F)F)n1 (centres unmarked) [Compound B, 4-(3-(benzyloxy)phenyl)-2-(ethylsulfinyl)-6-(trifluoromethyl)-pyramidine] |  |  |  |  | GSICP, 8 mM glucose preincubation (GLP-1R [6]): boosted GSCIP to a greater extent; insulin secretion (human islets): near-normal levels
